Measured values taken from ChEMBL document CHEMBL4041466, “Synthesis and evaluation of new benzodioxole-based dithiocarbamate derivatives as potential anticancer agents and hCA-I and hCA-II inhibitors” (Eur J Med Chem, 2017).
≈ marks a conversion by molar mass, not a printed value.

Legend:
C6 = experiment: Antiproliferative activity against rat C6 cells after 24 hrs by MTT assay; conditions: C6, 24 h
A549 = experiment: Antiproliferative activity against human A549 cells after 24 hrs by MTT assay; conditions: A549, 24 h

SMILES	IC50 (A549) [µg/mL]	IC50 (C6) [µg/mL]
CC1CCN(NC(=S)SCC(=O)NCc2ccc3c(c2)OCO3)CC1	810 (≈ 2120 µM)	567 (≈ 1490 µM)
CN1CCN(NC(=S)SCC(=O)NCc2ccc3c(c2)OCO3)CC1	> 1000	167 (≈ 436 µM)
O=C(CSC(=S)NN1CCN(c2ncccn2)CC1)NCc1ccc2c(c1)OCO2	833 (≈ 1870 µM)	48.3 (≈ 108 µM)
O=C(CSC(=S)NN1CCOCC1)NCc1ccc2c(c1)OCO2	700 (≈ 1890 µM)	207 (≈ 559 µM)
COc1ccc(N2CCN(NC(=S)SCC(=O)NCc3ccc4c(c3)OCO4)CC2)cc1	> 1000	58.3 (≈ 123 µM)
O=C(CSC(=S)NN1CCSCC1)NCc1ccc2c(c1)OCO2	> 1000	220 (≈ 571 µM)

Now from value to molecule, other results behind:

IC50 (A549) [µg/mL]	SMILES	IC50 (C6) [µg/mL]
> 1000	O=C(CSC(=S)NN1CCN(c2ccccc2)CC1)NCc1ccc2c(c1)OCO2	163 (≈ 367 µM)
850 (≈ 2140 µM)	CCN1CCN(NC(=S)SCC(=O)NCc2ccc3c(c2)OCO3)CC1	157 (≈ 395 µM)
875 (≈ 2380 µM)	O=C(CSC(=S)NN1CCCCC1)NCc1ccc2c(c1)OCO2	633 (≈ 1720 µM)
> 1000	O=C(CSC(=S)NN1CCN(c2ccc([N+](=O)[O-])cc2)CC1)NCc1ccc2c(c1)OCO2	23.3 (≈ 47.7 µM)
